What was measured:
[1] = AUC in rat at 1 mg/kg, po; type: ADME, organism-based; conditions: in vivo
[2] = Oral bioavailability in rat at 1 mg/kg; type: ADME, organism-based; conditions: in vivo

AUC [1]: 94.6 ng·h/mL
bioavailability [2]: 30.8%
Structure (SMILES): CCC(CC)c1ccc(Cl)c2nc(Oc3c(C)cc(Cl)cc3Cl)n(C)c12
